Several values for one entry are separate records, joined by “and”; a condition that tells them apart may be missing. Equal values may be shown once.
Settings: Calculated from knudsen effusion weight loss

CCn1cc[n+](C)c1.O=S(=O)([N-]S(=O)(=O)C(F)(F)F)C(F)(F)F
Liquid
Settings | vapor or sublimation pressure
433.05 K | 2.8e-06 kPa
433.1 K | 3e-06 kPa
438.04 K | 4.2e-06 kPa
438.1 K | 4.3e-06 kPa
438.12 K | 4.5e-06 kPa
443.04 K | 5.9e-06 kPa
443.09 K | 6.3e-06 kPa
443.12 K | 6.3e-06 kPa
448.03 K | 8.4e-06 kPa
448.09 K | 8.8e-06 kPa
448.12 K | 8.9e-06 kPa
453.03 K | 1.18e-05 kPa
453.09 K | 1.23e-05 kPa
453.11 K | 1.25e-05 kPa and 1.21e-05 kPa
453.12 K | 1.25e-05 kPa
458.01 K | 1.71e-05 kPa
458.02 K | 1.66e-05 kPa
458.09 K | 1.72e-05 kPa
458.11 K | 1.76e-05 kPa
458.13 K | 1.72e-05 kPa
463.05 K | 2.29e-05 kPa
463.08 K | 2.39e-05 kPa
463.1 K | 2.45e-05 kPa and 2.42e-05 kPa
463.12 K | 2.38e-05 kPa
463.13 K | 2.39e-05 kPa
468.04 K | 3.16e-05 kPa
468.08 K | 3.27e-05 kPa
468.1 K | 3.41e-05 kPa
468.11 K | 3.33e-05 kPa
468.12 K | 3.29e-05 kPa
468.13 K | 3.32e-05 kPa
473.04 K | 4.32e-05 kPa
473.07 K | 4.5e-05 kPa
473.1 K | 4.61e-05 kPa
473.12 K | 4.51e-05 kPa
473.13 K | 4.53e-05 kPa
473.14 K | 4.69e-05 kPa
478.04 K | 5.84e-05 kPa
478.07 K | 6.13e-05 kPa
478.09 K | 6.25e-05 kPa
478.12 K | 6.08e-05 kPa and 6.16e-05 kPa
478.13 K | 6.12e-05 kPa
483.04 K | 7.83e-05 kPa
483.06 K | 8.23e-05 kPa
483.08 K | 8.4e-05 kPa
483.11 K | 8.32e-05 kPa and 8.24e-05 kPa
483.12 K | 8.26e-05 kPa
488.05 K | 0.0001107 kPa
488.06 K | 0.0001105 kPa
488.08 K | 0.000112 kPa
488.11 K | 0.0001112 kPa and 0.0001115 kPa
493.05 K | 0.0001465 kPa
493.07 K | 0.0001477 kPa
493.1 K | 0.0001477 kPa
493.11 K | 0.0001477 kPa
498.1 K | 0.0001931 kPa
498.11 K | 0.0001943 kPa
503.1 K | 0.0002516 kPa and 0.0002533 kPa

c1ccc(-c2cc(-c3ccccc3)cc(-c3ccccc3)c2)cc1 [1,3,5-triphenylbenzene]
Crystal
Settings | vapor or sublimation pressure
408.04 K | 0.000144 kPa
408.05 K | 0.0001488 kPa
408.16 K | 0.0001536 kPa
413.04 K | 0.0002384 kPa
413.05 K | 0.000247 kPa
413.16 K | 0.0002528 kPa
418.03 K | 0.0003878 kPa
418.05 K | 0.0004034 kPa
418.15 K | 0.0004157 kPa
423.03 K | 0.0006219 kPa and 0.0006345 kPa
423.04 K | 0.0006477 kPa
423.16 K | 0.0006722 kPa
428.03 K | 0.0009832 kPa
428.04 K | 0.001026 kPa
428.16 K | 0.001081 kPa

Source: the NIST ThermoML archive (doi:10.1016/j.jct.2018.07.004)
